Data taken from a compilation of properties of binary mixtures (doi:10.1021/acs.jced.6b00596).

Test: xn = mol fraction of the nth substance listed
Details: 100 kPa

CCCCCCCC[P+](CC)(CC)CC.O=[N+]([O-])c1cn[n-]c1 + COCCOCCOCCOCCOC
viscosity [mPa·s]
Details | 278.15 K | 283.15 K | 288.15 K | 293.15 K | 298.15 K | 303.15 K | 308.15 K | 313.15 K | 318.15 K | 323.15 K
x2 = 0 | 1340 | – | – | 398 | 282 | 207 | 155 | 119 | – | 75
x2 = 0.051 | 1010 | 666 | 452 | 317 | 229 | – | 130 | 101 | 80 | 65
x2 = 0.102 | 693 | 471 | – | 234 | 172 | 130 | 101 | 80 | 64 | 52
x2 = 0.199 | 395 | 277 | 199 | 147 | 112 | 87 | – | – | – | –
x2 = 0.3 | 229 | 166 | 123 | 94 | 73 | 58 | – | – | – | –
x2 = 0.404 | 129 | – | 74 | 59 | – | – | – | – | – | –
x2 = 0.503 | – | 60 | – | – | – | – | – | – | – | –

CCCCCC[n+]1ccn(C)c1.O=S(=O)([N-]S(=O)(=O)C(F)(F)F)C(F)(F)F + COCCOCCOCCOCCOC
x2 = 0
Details | viscosity [mPa·s]
278.15 K | 204
283.15 K | 151
288.15 K | 115
293.15 K | 89

CCCCCC[n+]1ccn(C)c1C.O=S(=O)([N-]S(=O)(=O)C(F)(F)F)C(F)(F)F + COCCOCCOCCOCCOC
Details | viscosity [mPa·s]
278.15 K, x2 = 0 | 485
278.15 K, x2 = 0.102 | 370
278.15 K, x2 = 0.205 | 251
278.15 K, x2 = 0.306 | 161
278.15 K, x2 = 0.399 | 109
278.15 K, x2 = 0.499 | 70
278.15 K, x2 = 0.599 | 48
283.15 K, x2 = 0 | 335
283.15 K, x2 = 0.102 | 258
283.15 K, x2 = 0.205 | 177
283.15 K, x2 = 0.306 | 116
283.15 K, x2 = 0.399 | 81
283.15 K, x2 = 0.499 | 53
288.15 K, x2 = 0 | 236
288.15 K, x2 = 0.102 | 184
288.15 K, x2 = 0.205 | 129
288.15 K, x2 = 0.306 | 86
288.15 K, x2 = 0.399 | 61
293.15 K, x2 = 0 | 172
293.15 K, x2 = 0.205 | 96
298.15 K, x2 = 0.205 | 74
303.15 K, x2 = 0 | 99
303.15 K, x2 = 0.102 | 80
303.15 K, x2 = 0.205 | 58
308.15 K, x2 = 0 | 78
313.15 K, x2 = 0 | 63
313.15 K, x2 = 0.102 | 52

CCCC[P+](CC)(CC)CC.Cc1ncc([N+](=O)[O-])[n-]1 + COCCOCCOCCOCCOC
viscosity [mPa·s]
Details | 278.15 K | 283.15 K | 288.15 K | 293.15 K | 298.15 K | 303.15 K | 308.15 K | 313.15 K | 318.15 K | 323.15 K
x2 = 0.048 | – | 975 | 634 | 428 | 299 | 215 | – | 121 | 94 | 74
x2 = 0.102 | 972 | – | 421 | 291 | – | 153 | 116 | – | 71 | 57
x2 = 0.201 | 516 | 350 | 243 | 175 | – | 99 | 77 | 62 | – | –
x2 = 0.299 | 258 | 183 | 134 | 100 | 76 | 60 | – | – | – | –
x2 = 0.401 | 134 | – | 74 | 57 | – | – | – | – | – | –
x2 = 0.501 | 74 | – | – | – | – | – | – | – | – | –

CCCn1cc[n+](C)c1C.O=[N+]([O-])c1cn[n-]c1 + COCCOCCOCCOCCOC
viscosity [mPa·s]
Details | 278.15 K | 283.15 K | 288.15 K | 293.15 K | 298.15 K | 303.15 K | 308.15 K | 313.15 K | 318.15 K | 323.15 K
x2 = 0.05 | 5420 | 2660 | 1400 | 798 | 487 | 314 | 213 | 150 | 111 | 84
x2 = 0.1 | 3220 | – | – | 552 | 350 | 234 | 163 | 118 | 90 | 70
x2 = 0.201 | 1300 | – | – | 287 | 194 | 137 | 100 | – | 59 | –
x2 = 0.302 | 546 | 338 | 218 | 149 | 106 | 79 | 61 | – | – | –
x2 = 0.399 | – | 167 | 115 | 83 | – | – | – | – | – | –
x2 = 0.499 | 125 | – | 64 | – | – | – | – | – | – | –
x2 = 0.6 | 65 | – | – | – | – | – | – | – | – | –
